Measured values published in the OligoGym collection.
HELM strings list units from the 5' end as sugar, base in round brackets, then linkage (d deoxyribose, r ribose, m 2'-O-methyl, p phosphodiester). Strings are as the collection lists them; they lack the last nucleoside at the 3' end of the tested compound. [moe] = 2'-O-(2-methoxyethyl) (MOE); [sp] = phosphorothioate linkage; [m5C] = 5-methylcytosine

Each substance was assayed against GFAP (assay: mouse, dose not given). Settings: ASO.

Substance	3 h FOB score [score 0-7]
RNA1{[moe](G)[sp].[moe]([m5C])p.[moe](A)p.[moe](T)p.[moe](T)[sp].d(T)[sp].d(G)[sp].d(T)[sp].d([m5C])[sp].d(T)[sp].d(T)[sp].d(T)[sp].d(A)[sp].d(T)[sp].d(T)[sp].[moe](T)p.[moe](T)p.[moe](T)[sp].[moe]([m5C])}$$$$ (last 3' nucleoside missing)	0
RNA1{[moe]([m5C])[sp].[moe](A)p.[moe](G)p.[moe](G)p.[moe](G)[sp].d([m5C])[sp].d(T)[sp].d(A)[sp].d([m5C])[sp].d([m5C])[sp].d(T)[sp].d(T)[sp].d(G)[sp].d(T)[sp].d([m5C])[sp].[moe](T)p.[moe](G)p.[moe](T)[sp].[moe](G)}$$$$ (last 3' nucleoside missing)	6
RNA1{[moe](G)[sp].[moe](T)p.[moe](G)p.[moe](T)p.d(A)[sp].d(T)[sp].d(T)[sp].d(A)[sp].d(G)[sp].d(G)[sp].d(A)[sp].d(T)[sp].d([m5C])[sp].d([m5C])[sp].[moe]([m5C])p.[moe](A)p.[moe](T)p.[moe]([m5C])[sp].[moe](T)}$$$$ (last 3' nucleoside missing)	3
RNA1{[moe](T)[sp].[moe](T)p.[moe](T)p.[moe](G)p.[moe](T)[sp].d([m5C])[sp].d(T)[sp].d(T)[sp].d(T)[sp].d(A)[sp].d(T)[sp].d(T)[sp].d(T)[sp].d(T)[sp].d(T)[sp].[moe]([m5C])p.[moe]([m5C])p.[moe](T)[sp].[moe]([m5C])}$$$$ (last 3' nucleoside missing)	0
RNA1{[moe](T)[sp].[moe](T)p.[moe](G)p.[moe](G)p.[moe]([m5C])p.d(A)[sp].d(G)[sp].d(T)[sp].d(A)[sp].d(T)[sp].d(T)[sp].d(A)[sp].d([m5C])[sp].d([m5C])[sp].d(T)[sp].[moe]([m5C])p.[moe](T)p.[moe](A)[sp].[moe]([m5C])}$$$$ (last 3' nucleoside missing)	0
RNA1{[moe](T)[sp].[moe](T)p.[moe](T)p.[moe]([m5C])p.[moe](T)[sp].d([m5C])[sp].d(T)[sp].d([m5C])[sp].d([m5C])[sp].d(T)[sp].d(G)[sp].d(T)[sp].d(T)[sp].d(T)[sp].d([m5C])[sp].[moe](A)p.[moe](G)p.[moe]([m5C])[sp].[moe](A)}$$$$ (last 3' nucleoside missing)	3
RNA1{[moe](A)[sp].[moe](G)p.[moe](A)p.[moe](G)p.[moe](T)[sp].d(G)[sp].d(T)[sp].d(G)[sp].d(T)[sp].d(A)[sp].d(T)[sp].d(T)[sp].d(A)[sp].d(G)[sp].d(G)[sp].[moe](A)p.[moe](T)p.[moe]([m5C])[sp].[moe]([m5C])}$$$$ (last 3' nucleoside missing)	5
RNA1{[moe](T)[sp].[moe]([m5C])p.[moe](A)p.[moe](G)p.[moe]([m5C])p.[moe]([m5C])p.d(T)[sp].d(G)[sp].d(G)[sp].d(T)[sp].d(T)[sp].d(A)[sp].d(G)[sp].d([m5C])[sp].d([m5C])[sp].d(T)[sp].[moe](T)p.[moe](T)[sp].[moe]([m5C])}$$$$ (last 3' nucleoside missing)	4
RNA1{[moe](T)[sp].[moe](G)p.[moe](T)p.[moe]([m5C])p.[moe](T)[sp].d(T)[sp].d(T)[sp].d(A)[sp].d(T)[sp].d(T)[sp].d(T)[sp].d(T)[sp].d(T)[sp].d([m5C])[sp].d([m5C])[sp].[moe](T)p.[moe]([m5C])p.[moe](A)[sp].[moe](G)}$$$$ (last 3' nucleoside missing)	2
RNA1{[moe](A)[sp].[moe](G)p.[moe]([m5C])p.[moe](A)p.[moe](T)p.[moe](T)p.d(T)[sp].d(G)[sp].d(T)[sp].d([m5C])[sp].d(T)[sp].d(T)[sp].d(T)[sp].d(A)[sp].d(T)[sp].d(T)[sp].[moe](T)p.[moe](T)[sp].[moe](T)}$$$$ (last 3' nucleoside missing)	1
RNA1{[moe](T)[sp].[moe]([m5C])p.[moe](A)p.[moe]([m5C])p.[moe](A)[sp].d(T)[sp].d(T)[sp].d([m5C])[sp].d(A)[sp].d([m5C])[sp].d(T)[sp].d(A)[sp].d(A)[sp].[moe](T)p.[moe](A)p.[moe](T)[sp].[moe](T)}$$$$ (last 3' nucleoside missing)	0
RNA1{[moe](T)[sp].[moe](G)p.[moe](G)p.[moe]([m5C])p.[moe](A)p.d(G)[sp].d(T)[sp].d(A)[sp].d(T)[sp].d(T)[sp].d(A)[sp].d([m5C])[sp].d([m5C])[sp].d(T)[sp].d([m5C])[sp].[moe](T)p.[moe](A)p.[moe]([m5C])[sp].[moe](T)}$$$$ (last 3' nucleoside missing)	1
RNA1{[moe](T)[sp].[moe](G)p.[moe](T)p.[moe](A)p.[moe](T)p.d(T)[sp].d(A)[sp].d(G)[sp].d(G)[sp].d(A)[sp].d(T)[sp].d([m5C])[sp].d([m5C])[sp].d([m5C])[sp].d(A)[sp].[moe](T)p.[moe]([m5C])p.[moe](T)[sp].[moe](A)}$$$$ (last 3' nucleoside missing)	4
RNA1{[moe](A)[sp].[moe](G)p.[moe](T)p.[moe](G)p.d(T)[sp].d(G)[sp].d(T)[sp].d(A)[sp].d(T)[sp].d(T)[sp].d(A)[sp].d(G)[sp].d(G)[sp].d(A)[sp].[moe](T)p.[moe]([m5C])p.[moe]([m5C])p.[moe]([m5C])[sp].[moe](A)}$$$$ (last 3' nucleoside missing)	5
RNA1{[moe](A)[sp].[moe](A)p.[moe](T)p.[moe]([m5C])p.[moe](A)[sp].d(T)[sp].d(T)[sp].d(T)[sp].d([m5C])[sp].d(A)[sp].d(G)[sp].d(G)[sp].d(G)[sp].d([m5C])[sp].d([m5C])[sp].[moe](A)p.[moe](A)p.[moe](T)[sp].[moe](G)}$$$$ (last 3' nucleoside missing)	5
RNA1{[moe](G)[sp].[moe](T)p.[moe](G)p.[moe](T)p.[moe](A)p.[moe](T)p.d(T)[sp].d(A)[sp].d(G)[sp].d(G)[sp].d(A)[sp].d(T)[sp].d([m5C])[sp].d([m5C])[sp].d([m5C])[sp].d(A)[sp].[moe](T)p.[moe]([m5C])[sp].[moe](T)}$$$$ (last 3' nucleoside missing)	4
RNA1{[moe](G)[sp].[moe](A)p.[moe](G)p.[moe](G)p.[moe]([m5C])[sp].d(T)[sp].d(T)[sp].d(T)[sp].d(T)[sp].d(G)[sp].d(A)[sp].d(G)[sp].d(A)[sp].d(T)[sp].d(A)[sp].[moe](T)p.[moe]([m5C])p.[moe](T)[sp].[moe](T)}$$$$ (last 3' nucleoside missing)	4
RNA1{[moe](G)[sp].[moe](T)p.[moe](G)p.[moe](G)p.[moe](A)[sp].d(G)[sp].d(G)[sp].d(G)[sp].d([m5C])[sp].d(G)[sp].d(A)[sp].d(T)[sp].d(G)[sp].d(T)[sp].d(A)[sp].[moe](G)p.[moe](T)p.[moe](A)[sp].[moe](G)}$$$$ (last 3' nucleoside missing)	7
RNA1{[moe](T)[sp].[moe](G)p.[moe](G)p.[moe]([m5C])p.[moe](A)[sp].d(G)[sp].d(T)[sp].d(A)[sp].d(T)[sp].d(T)[sp].d(A)[sp].d([m5C])[sp].d([m5C])[sp].d(T)[sp].d([m5C])[sp].[moe](T)p.[moe](A)p.[moe]([m5C])[sp].[moe](T)}$$$$ (last 3' nucleoside missing)	1
